Tested on: 362531-283-R-J2-PDC complex spheroid viability
Assay: Anticancer human tumor 362531-283-R-J2-PDC patient-derived colon adenocarcinoma cell line growth inhibition [RAS]
Settings: for IC50: curve of first compound; for viability, T/C: stronger effect = lower value
Outline: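 Agents were tested in combination matrices in half-log decrements from a top concentration at or near clinical Cmax (10 microM if undetermined). Targets were multi-cell spheroids of tumour lines plus HUVEC and MSC stromal cells.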
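Also: spheroids exposed to the agents for 7 days before readout.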
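For viability, T/C in this document: luminescence viability as percent of DMSO vehicle control wells.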

**Q.** What does the source list for `CCc1c2c(nc3ccc(O)cc13)-c1cc3c(c(=O)n1C2)COC(=O)[C@]3(O)CC` + CCn1c(-c2cc(N3CCN(C)CC3)cnc2C(C)OC)c2c3cc(ccc31)-c1csc(n1)CC(NC(=O)C1CC1C)C(=O)N1CCCC(N1)C(=O)OCC(C)(C)C2?
**A.** IC50 (second compound 0.000949 µM): 42.1 nM; IC50 (second compound 0.003 µM): 37.8 nM; IC50 (second compound 0.00949 µM): 41.4 nM; IC50 (second compound 0.03 µM): 35.8 nM; IC50 (second compound 0.0949 µM): 14.4 nM; IC50 (second compound 0.3 µM): < 0.949 nM; viability, T/C (second compound 0.000949 µM, first compound 0.000949 µM): 94.3%; viability, T/C (second compound 0.000949 µM, first compound 0.003 µM): 90.9%; viability, T/C (second compound 0.000949 µM, first compound 0.00949 µM): 80.9%; viability, T/C (second compound 0.000949 µM, first compound 0.03 µM): 61.4%; viability, T/C (second compound 0.000949 µM, first compound 0.0949 µM): 26.2%; viability, T/C (second compound 0.000949 µM, first compound 0.3 µM): 16.4%; viability, T/C (second compound 0.003 µM, first compound 0.000949 µM): 97.5%; viability, T/C (second compound 0.003 µM, first compound 0.003 µM): 99.7%; viability, T/C (second compound 0.003 µM, first compound 0.00949 µM): 75.1%; viability, T/C (second compound 0.003 µM, first compound 0.03 µM): 61.8%; viability, T/C (second compound 0.003 µM, first compound 0.0949 µM): 23.4%; viability, T/C (second compound 0.003 µM, first compound 0.3 µM): 19.2%; viability, T/C (second compound 0.00949 µM, first compound 0.000949 µM): 101%; viability, T/C (second compound 0.00949 µM, first compound 0.003 µM): 97.1%; viability, T/C (second compound 0.00949 µM, first compound 0.00949 µM): 74.4%; viability, T/C (second compound 0.00949 µM, first compound 0.03 µM): 63.6%; viability, T/C (second compound 0.00949 µM, first compound 0.0949 µM): 26.9%; viability, T/C (second compound 0.00949 µM, first compound 0.3 µM): 12.6%; viability, T/C (second compound 0.03 µM, first compound 0.000949 µM): 94.3%; viability, T/C (second compound 0.03 µM, first compound 0.003 µM): 89.1%; viability, T/C (second compound 0.03 µM, first compound 0.00949 µM): 69.4%; viability, T/C (second compound 0.03 µM, first compound 0.03 µM): 59.5%; viability, T/C (second compound 0.03 µM, first compound 0.0949 µM): 25.3%; viability, T/C (second compound 0.03 µM, first compound 0.3 µM): 7.44%; viability, T/C (second compound 0.0949 µM, first compound 0.000949 µM): 76.8%; viability, T/C (second compound 0.0949 µM, first compound 0.003 µM): 65.3%; viability, T/C (second compound 0.0949 µM, first compound 0.00949 µM): 61.4%; viability, T/C (second compound 0.0949 µM, first compound 0.03 µM): 33.8%; viability, T/C (second compound 0.0949 µM, first compound 0.0949 µM): 14.2%; viability, T/C (second compound 0.0949 µM, first compound 0.3 µM): 5.26%; viability, T/C (second compound 0.3 µM, first compound 0.000949 µM): 33.5%; viability, T/C (second compound 0.3 µM, first compound 0.003 µM): 45.4%; viability, T/C (second compound 0.3 µM, first compound 0.00949 µM): 17.2%; viability, T/C (second compound 0.3 µM, first compound 0.03 µM): 13.4%; viability, T/C (second compound 0.3 µM, first compound 0.0949 µM): 5.23%; viability, T/C (second compound 0.3 µM, first compound 0.3 µM): 2.69%

**Q.** For `C=CC(=O)Nc1cc(Nc2nccc(-c3cn(C)c4ccccc34)n2)c(OC)cc1N(C)CCN(C)C` + CCn1c(-c2cc(N3CCN(C)CC3)cnc2C(C)OC)c2c3cc(ccc31)-c1csc(n1)CC(NC(=O)C1CC1C)C(=O)N1CCCC(N1)C(=O)OCC(C)(C)C2, which IC50 (second compound 0.000949 µM) is on record?
**A.** > 1000 nM

**Q.** And the IC50 (second compound 0.003 µM)?
**A.** > 1000 nM

**Q.** And the IC50 (second compound 0.00949 µM)?
**A.** 606 nM

**Q.** And the IC50 (second compound 0.03 µM)?
**A.** 464 nM

**Q.** What about the IC50 (second compound 0.0949 µM) of the same molecule?
**A.** 129 nM

**Q.** And the IC50 (second compound 0.3 µM)?
**A.** < 3.16 nM

**Q.** What about the viability, T/C (second compound 0.000949 µM, first compound 0.00316 µM) of the same molecule?
**A.** 87.5%

**Q.** What about the viability, T/C (second compound 0.000949 µM, first compound 0.01 µM) of the same molecule?
**A.** 104%

**Q.** What about the viability, T/C (second compound 0.000949 µM, first compound 0.0316 µM) of the same molecule?
**A.** 91.4%

**Q.** What about the viability, T/C (second compound 0.000949 µM, first compound 0.1 µM) of the same molecule?
**A.** 88%

**Q.** And the viability, T/C (second compound 0.000949 µM, first compound 0.316 µM)?
**A.** 98.2%

**Q.** What about the viability, T/C (second compound 0.000949 µM, first compound 1 µM) of the same molecule?
**A.** 65.6%

**Q.** What about the viability, T/C (second compound 0.003 µM, first compound 0.00316 µM) of the same molecule?
**A.** 97.7%

**Q.** What about the viability, T/C (second compound 0.003 µM, first compound 0.01 µM) of the same molecule?
**A.** 94.6%

**Q.** What about the viability, T/C (second compound 0.003 µM, first compound 0.0316 µM) of the same molecule?
**A.** 94.6%

**Q.** And the viability, T/C (second compound 0.003 µM, first compound 0.1 µM)?
**A.** 89.3%

**Q.** And the viability, T/C (second compound 0.003 µM, first compound 0.316 µM)?
**A.** 91.9%

**Q.** What about the viability, T/C (second compound 0.003 µM, first compound 1 µM) of the same molecule?
**A.** 63.1%

**Q.** And the viability, T/C (second compound 0.00949 µM, first compound 0.00316 µM)?
**A.** 93.3%

**Q.** And the viability, T/C (second compound 0.00949 µM, first compound 0.01 µM)?
**A.** 115%

**Q.** And the viability, T/C (second compound 0.00949 µM, first compound 0.0316 µM)?
**A.** 81.1%

**Q.** What about the viability, T/C (second compound 0.00949 µM, first compound 0.1 µM) of the same molecule?
**A.** 78.9%

**Q.** And the viability, T/C (second compound 0.00949 µM, first compound 0.316 µM)?
**A.** 80.4%

**Q.** What about the viability, T/C (second compound 0.00949 µM, first compound 1 µM) of the same molecule?
**A.** 31.4%

**Q.** And the viability, T/C (second compound 0.03 µM, first compound 0.00316 µM)?
**A.** 92.2%

**Q.** What about the viability, T/C (second compound 0.03 µM, first compound 0.01 µM) of the same molecule?
**A.** 91.8%

**Q.** What about the viability, T/C (second compound 0.03 µM, first compound 0.0316 µM) of the same molecule?
**A.** 83%

**Q.** And the viability, T/C (second compound 0.03 µM, first compound 0.1 µM)?
**A.** 85.6%

**Q.** And the viability, T/C (second compound 0.03 µM, first compound 0.316 µM)?
**A.** 69.6%

**Q.** What about the viability, T/C (second compound 0.03 µM, first compound 1 µM) of the same molecule?
**A.** 11.8%

**Q.** And the viability, T/C (second compound 0.0949 µM, first compound 0.00316 µM)?
**A.** 81.3%

**Q.** And the viability, T/C (second compound 0.0949 µM, first compound 0.01 µM)?
**A.** 75.4%

**Q.** And the viability, T/C (second compound 0.0949 µM, first compound 0.0316 µM)?
**A.** 76.5%

**Q.** And the viability, T/C (second compound 0.0949 µM, first compound 0.1 µM)?
**A.** 59.2%

**Q.** And the viability, T/C (second compound 0.0949 µM, first compound 0.316 µM)?
**A.** 18.5%

**Q.** What about the viability, T/C (second compound 0.0949 µM, first compound 1 µM) of the same molecule?
**A.** 10.8%

**Q.** What about the viability, T/C (second compound 0.3 µM, first compound 0.00316 µM) of the same molecule?
**A.** 42.3%

**Q.** And the viability, T/C (second compound 0.3 µM, first compound 0.01 µM)?
**A.** 38.4%

**Q.** What about the viability, T/C (second compound 0.3 µM, first compound 0.0316 µM) of the same molecule?
**A.** 32.7%

**Q.** And the viability, T/C (second compound 0.3 µM, first compound 0.1 µM)?
**A.** 23%

**Q.** What about the viability, T/C (second compound 0.3 µM, first compound 0.316 µM) of the same molecule?
**A.** 10.8%

**Q.** What about the viability, T/C (second compound 0.3 µM, first compound 1 µM) of the same molecule?
**A.** 8.2%

— PubChem BioAssay AID2060909 (Molecular Pharmacology Branch, DTP, NCI, 2025)
